Data as given in ChEMBL document CHEMBL1130508, “Synthesis of 7-membered cyclic hydroxyguanidines: Novel HIV-1 protease inhibitors” (Bioorg Med Chem Lett, 1997).

Target: Human immunodeficiency virus type 1 protease (Human immunodeficiency virus 1, UniProt Q72874)
Assay: The compound was evaluated for its inhibition constant against HIV-1 protease (HIV PR)

Structure (SMILES) | Ki
O[C@@H]1[C@@H](O)[C@@H](Cc2ccccc2)N(Cc2ccccc2)C(=NOCc2ccccc2)N(Cc2ccccc2)[C@@H]1Cc1ccccc1 | 3 µM
ON=C1N(Cc2ccccc2)[C@H](Cc2ccccc2)[C@H](O)[C@@H](O)[C@@H](Cc2ccccc2)N1Cc1ccccc1 | 0.042 µM
